Here are results for two compounds from patent publication US8148354B2, “Use of 20(S)-protopanaxadiol in manufacture of antidepressants” (priority 2006, dated 2012).

Test [1] has as its system chronic unpredictable stress rats. As to the kind of experiment: Chronic unpredictable stress testing of rats (open-field test). Format: in vivo. The settings on record: mean ± SD. As to the method: Male stressed SD rats were housed individually and exposed for 21 days to the following unpredictable stressors: ice water swimming (4° C., 5 min), tail pinch (3 min), water deprivation (40 h), food deprivation (40 h), paired feeding, wet bedding, binding, and overnight lighting, each stress was applied two or three times. Animals in the non-stressed control group were housed 5 per cage. An open-field test was used to observe behavior. A large cubiform box (80×80×40 cm) was employed in which the floor was divided into 25 grids of equal size using white lines, with the same size grids also marked on the surrounding walls. The number of floor grids crossed (crossing) and the number of rearing up on hind limbs (rearing) were recorded. Observations of each rat were made every 3 minutes on the 22nd day. T test was used for statistical analysis.

Test [2] concerns 5-HTP-Induced Tremors in Mice. The test can be described thus: L-5-HTP induced tremor testing of mice. Format: in vivo, Kunming mice. The settings on record: 10 mice per group. As to the method:
Seventy male Kunming mice, 8-9 weeks old and weighing 18-22 g, were randomly divided by weight into 7 groups and administered a single dose by gavage as shown in Table 13. […] Then, mice were individually put into cages (16×27 cm) and observed for 20 minutes. The number of animals with tremors was recorded. Fisher's exact test was used for statistical analysis.

Test [3] has as its system model rats wearing shackles. The test can be described thus: Stress testing of rats wearing shackles (open-field test). The conditions noted are these: shackle model rats, mean ± SD. Format: in vivo. An excerpt:
(§1) (i) Modeling Method: Sixty male SD rats, 8-9 weeks old and weighing 200-250 g, were randomly divided into 6 groups and subjected to gavage once a day as shown in Table 9. On the first day, individually housed rats were fitted with a cylindrical plastic shackle-like device composed of two pieces of red organic glass 0.2 cm-thick and 4 cm in diameter. The device could be adjusted according to the size of the animals and was worn for 21 days.
(ii) Test Indexes: Behavior such as rearing up; grabbing and gnawing; braying; slowness in reactions; action tardiness; narrowing of the eyes with secretion; yellow of fur; small, dry and fewer feces; borrow-reddish fail with scales and weight loss. An open-field test was used to observe the behavior of animals on day 21 (the same method used with the chronic stress rat model).

The subject of test [4] is monoamine neurotransmitter and its metabolite in cerebral tissues. The test can be described thus: Measure of cerebral neurotransmitters in rats wearing shackles (HPLC-ECD). Format: in vivo, SD rats. The settings on record: shackle model rats, brain.
Text: as §1
Preparation of Cerebral Tissues: Rats were Sacrificed by Femoral Arterial Exsanguination, and whole brains were weighed after the cerebellum was excised and homogenized in 950 μl (0.1 mol/L) perchloric acid (containing 0.05% Na2EDTA) and 50 μl (2 μg/ml) of DHBA. This material was then centrifuged at 11,000 rpm/for 10 minutes and, 10 μl of the supernatant were taken for testing. Results were as follows: The amount of each neurotransmitter was shown as the wet weight (ng/g) in cerebral tissues.
Chromatographic conditions: Chromatography was performed with a Shimadzu HPLC system, which was equipped with an L-BCD-6A electrochemical detector (detection range: 0.1-500 nA), a chromatographic column of 5 μm, 200 mm×4.6 mm ID glassy carbon electrode; the flow rate employed was 1.2 ml/min, the operating voltage was +0.75 V; and oxygenation was maintained. An NP2000 workstation was used for data recording and processing (Intelligence Information Institute of Zhejiang University). The potential difference between the working electrode and reference electrode was 0.75 V. The mobile phase, prepared with deionized water and degassed, consisted of 0.1 mmol/L citric acid-0.1 mmol/L sodium acetate buffer at pH4.37 with 10% ethanol. A mixture of a B81.2 mmol/L ion pair and 1.3 mmol/L Di-n-butylamine was used after degasification of the G4 glass filler.
Preparation of standard solutions: The stock solutions were 2 μg/ml for DHBA and 20 μg/ml for NE, DA, DOPAC, 5-HT, 5-HIAA and HAV. Standard solution 6 was prepared by mixing 20 μl each of NE, DA, DOPAC, 5-HT, 5-HIAA and HAV, then 80 μl of 0.1 mM mmol/LHCLO4 were added. Standard solution 7 (100 ng/ml) was prepared by mixing 50 μl of standard solution 6, 50 μl DHBA and 900 μl 0.1 mmol/LHCLO4. Standard solution 7 (10 μl) was used for HPLC.

Another test relates to NA Re-uptake. As to the kind of experiment: NA re-uptake test ([3H]-norepinephrine, corpus striatum homogenate). Format: biochemical, SD rats.
In test [5] the test system is Reserpine-Induced Akinesia in Mice. As to the kind of experiment: Inhibition of akinesia induced by reserpine. The settings on record: reserpine 2.5 mg/kg i.p., 10 mice per group. The test is classed as in vivo, Kunming mice. As to the method:
Fifty male Kunming mice, 8-9 weeks old and weighing 18-22 g, were randomly divided by weight into 5 groups, and administered by gavage a single dose of one of the drugs listed in Table 5 for 10 consecutive days. Sixty minutes after the last dose, mice were given a reserpine injection (2.5 mg/kg) delivered i. p. Sixty minutes later, mice were individually placed on the center of a round filter paper 7.5 cm in diameter. After a 30-sec observation, the number of animals that were still on the filter paper was recorded. Fisher's exact test was used for statistical analysis.

Test [6] deals with Levodopa Behavior in Mice. The test can be described thus: Enhancement of the behavioral effects of levodopa on mice. Format: in vivo, Kunming mice. The settings on record: 10 mice per group. As to the method: Seventy male Kunming mice, 8-9 weeks old and weighing 18-22 g, were randomly divided by weight […] into 7 groups and administered a single dose by gavage as shown in Table 14. Sixty minutes later, levodopa at a dose of 200 mg/kg (the maximal dose not inducing running in mice) was administered i. p. Then, mice were put into separate cages and observed for 30 minutes. The number of running mice was recorded. Fisher's exact test was used for statistical analysis.

[7] abbreviates: open-field day 21, 16 mg/kg × 21 i.g.

SMILES strings stand for the structures. Marks after values point to notes of the source that are not given here.

As to `CC(C)=CCC[C@](C)(O)[C@H]1CC[C@]2(C)[C@@H]1[C@H](O)C[C@@H]1[C@@]3(C)CC[C@H](O)C(C)(C)[C@@H]3CC[C@]12C` [20(S)-protopanaxadiol], the Number of crossing in test [1] (3.33 mg/kg × 21 i.g.) is listed as 32.90 ± 13.19 times/3 min; in test [3] (open-field day 21, 3.33 mg/kg × 21 i.g.), 7.00 ± 2.05 times/3 min. In addition, the Number of rearing in test [1] (3.33 mg/kg × 21 i.g.) is reported as 6.50 ± 2.64 times/3 min. In addition, the “Number of running animals” value in test [2] (3.75 mg/kg × 1 i.g., with 5-HTP 200 mg/kg i.p.) amounted to 2; in test [6] (3.75 mg/kg × 1 i.g., with levodopa 200 mg/kg i.p.), 2. Moreover, the “Concentration of monoamine neurotransmitter and its metabolite: 5-HIAA” value in test [4] (3.33 mg/kg × 21 i.g.) is given as 8.78 ng/g nerve tissues; in test [4] (6.67 mg/kg × 21 i.g.) it was 9.02 ng/g nerve tissues; in test [4] (13.33 mg/kg × 21 i.g.) it was 8.62 ng/g nerve tissues. Moreover, the “Concentration of monoamine neurotransmitter and its metabolite: DA” value in test [4] (3.33 mg/kg × 21 i.g.) stood at 375.96 ng/g nerve tissues; in test [4] (6.67 mg/kg × 21 i.g.) it was 401.67 ng/g nerve tissues; in test [4] (13.33 mg/kg × 21 i.g.), 394.41 ng/g nerve tissues. Further, the entries for the “Concentration of monoamine neurotransmitter and its metabolite: DOPAC” value in test [4] (3.33 mg/kg × 21 i.g.), in test [4] (6.67 mg/kg × 21 i.g.) and in test [4] (13.33 mg/kg × 21 i.g.) were 21.57 ng/g nerve tissues, 22.17 ng/g nerve tissues and 20.68 ng/g nerve tissues, respectively. In addition, the “Concentration of monoamine neurotransmitter and its metabolite: 5-HT” value is on record as 113.18 ng/g nerve tissues in test [4] (6.67 mg/kg × 21 i.g.) and 102.81 ng/g nerve tissues in test [4] (13.33 mg/kg × 21 i.g.). Further, the results for the “Concentration of monoamine neurotransmitter and its metabolite: HAV” value in test [4] (6.67 mg/kg × 21 i.g.) and in test [4] (13.33 mg/kg × 21 i.g.) were 56.37 ng/g nerve tissues and 53.19 ng/g nerve tissues, respectively. Further, the “Concentration of monoamine neurotransmitter and its metabolite: NE” value in test [4] (13.33 mg/kg × 21 i.g.) is recorded as 11.04 ng/g nerve tissues. Besides, the Amount of re-uptake is recorded as 5347.8 ± 555.1 dmp in the test with NA Re-uptake (concentration 0.01 μg/ml), 5137.2 ± 465.7 dmp with NA Re-uptake (concentration 0.1 μg/ml), 4950.6 ± 534.5 dmp in the test on NA Re-uptake (concentration 1 μg/ml) and 4690.1 ± 332.1 dmp in the test with NA Re-uptake (concentration 10 μg/ml). Besides, the Inhibitory rate amounted to 4.4% with NA Re-uptake (concentration 0.01 μg/ml), 8.2% in the test with NA Re-uptake (concentration 0.1 μg/ml), 11.5% with NA Re-uptake (concentration 1 μg/ml) and 16.2% with NA Re-uptake (concentration 10 μg/ml). Besides, the figures for the “Number of animals Remaining on the filter paper for 30 seconds” value in test [5] (3.75 mg/kg × 10 i.g.) and in test [5] (7.5 mg/kg × 10 i.g.) were 8 and 7, respectively.
As to `CNCCC(Oc1ccc(C(F)(F)F)cc1)c1ccccc1` (stereo not drawn) [Fluoxetine, reference compound], in test [1] (16 mg/kg × 21 i.g.), the Number of crossing is listed as 44.40 ± 1.45 times/3 min and the Number of rearing was 11.30 ± 3.43 times/3 min. Also, in test [2] (18 mg/kg × 1 i.g., with 5-HTP 200 mg/kg i.p.), the “Number of running animals” value is 8***. In test [2] (18 mg/kg × 1 i.g., without 5-HTP), the “Number of running animals” value was found to be 0. In test [3] (setting [7]), this compound gave a Number of crossing of 11.20 ± 3.08 times/3 min and a Number of rearing of 49.80 ± 20.31 times/3 min. Also, in test [4] (16 mg/kg × 21 i.g.), the “Concentration of monoamine neurotransmitter and its metabolite: 5-HIAA” value is 8.42 ng/g nerve tissues; the “Concentration of monoamine neurotransmitter and its metabolite: 5-HT” value is recorded as 136.88 ± ng/g nerve tissues; the “Concentration of monoamine neurotransmitter and its metabolite: DA” value is recorded as 406.97 ng/g nerve tissues; the “Concentration of monoamine neurotransmitter and its metabolite: DOPAC” value came to 21.53 ng/g nerve tissues. Also, in test [4] (16 mg/kg × 21 i.g.), the “Concentration of monoamine neurotransmitter and its metabolite: HAV” value is reported as 62.17 ± ng/g nerve tissues; the “Concentration of monoamine neurotransmitter and its metabolite: NE” value is on record as 13.67 ± ng/g nerve tissues. In the test on NA Re-uptake (concentration 1 μg/ml), the Amount of re-uptake is given as 4311.8 ± 733.8 dmp. Besides, the “Number of animals Remaining on the filter paper for 30 seconds” value in test [5] (18 mg/kg × 10 i.g.) is 3**. In addition, in test [6] (18 mg/kg × 1 i.g., with levodopa 200 mg/kg i.p.), the “Number of running animals” value is on record as 7**. For the same compound, the “Number of running animals” value in test [6] (18 mg/kg × 1 i.g., without levodopa) is recorded as 0.
